Assay results published in patent US8217178B2, “[4-(5-aminomethyl-2-fluoro-phenyl)-piperidin-1-yl]-[7-flouro-1-(2-methoxy-ethyl)-4-trifluorom as an inhibitor of mast cell tryptase” (Sanofi, priority 2008, dated 2012).

Columns and labels:
[1] = Suspension of benzoate salt in water, solid form checked by XRPD and thermal analysis; type: physicochemical; details: 50 mg/mL free base equivalent in nanopure water, total 29 hours as suspension, then air dried
Protocol: Sample Preparation: Material was prepared as in the reference example 3 above. A suspension of the benzoate salt was prepared as 50 mg/mL free base equivalent in nanopure water, which was 63.6 mg salt in 1 mL water. Sample was stirred at 500 rpm overnight and allowed to stand for 4 hours before it was centrifuged (total 29 hours as suspension). It was centrifuged at 13000 rpm for 8 minutes and the collected solid was analyzed by XRPD (x-ray power diffraction) as wet sample and evaluated by microscope. The wet solid was then air dried at ambient room temperature overnight to be analyzed as the dry sample by XRPD and thermal analysis. The as is drug substance is compared as the initial material. The XRPD of free base drug substance was also used as the comparison. The benzoate appeared to be a variable hydrate, with the XRPD displaying the same peaks for different amounts of water.
• XRPD Method • Siemens Model D5000 with Cu anticathode • Program: 1.0 Sec. dql • Range: 2° to 40°. […]

[2] = molecular target: T1, recombinant human β tryptase (Homo sapiens, UniProt Q15661); assay: β-Tryptase inhibitory potency, in vitro enzyme assay (IC50 and Ki determination); type: biochemical; details: 0.5 mM substrate S2366 (2×Km), room temperature, pH 8.2; Ki=IC50/(1+[Substrate]/Km)
T1 construct: made in house; host or cells: yeast cells
T1 sequence (Q15661 31-275): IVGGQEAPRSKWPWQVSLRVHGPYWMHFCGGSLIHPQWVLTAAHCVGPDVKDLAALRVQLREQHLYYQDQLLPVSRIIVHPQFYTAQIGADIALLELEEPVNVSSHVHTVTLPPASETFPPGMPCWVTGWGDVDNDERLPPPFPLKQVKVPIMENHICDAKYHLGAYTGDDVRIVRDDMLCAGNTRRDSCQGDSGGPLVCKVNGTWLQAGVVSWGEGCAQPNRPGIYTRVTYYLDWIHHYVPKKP
Protocol: Tryptase inhibition activity is confirmed using either isolated human lung tryptase or recombinant human β tryptase expressed in yeast cells. Essentially equivalent results are obtained using isolated native enzyme or the expressed enzyme. The assay procedure employs a 96 well microplate (Costar 3590) using L-pyroglutamyl-L-prolyl-L-arginine-para-nitroanilide (S2366: Quadratech) as substrate (essentially as described by McEuen et. al. Biochem Pharm, 1996, 52, pages 331-340). Assays are performed at room temperature using 0.5 mM substrate (2×Km) in 50 mM Tris (pH 8.2), 100 mM NaCl, 0.05% Tween 20, 50 μg/mL heparin, and the microplate is read on a microplate reader (Beckman Biomek Plate reader) at 405 nm wavelength.
The protocol is essentially the same as above except that the compound is added in duplicates at the following final concentrations: 0.01, 0.03, 0.1, 0.3, 1, 3, 10 μM (All dilutions carried out manually). For every assay, whether single point or IC50 determination, a standard compound is used to derive IC50 for comparison. From the IC50 value, the Ki can be calculated using the following formula: Ki=IC50/(1+[Substrate]/Km).

[3] = system: antigen-induced airway hyperreactivity; assay: Antigen-induced airway hyperactivity assay in ovalbumin-sensitized guinea pigs; type: in vivo, guinea pig; details: for Increase in Airway Resistance (Area Under Curve) / Dynamic Lung Compliance (Area Under Curve): 24 hours prior to antigen challenge, histamine challenge i.v.; for Increase in Airway Resistance (Area Under Curve): Saline 3490, OVA (no treatment) 12586; for Dynamic Lung Compliance (Area Under Curve): Saline −799, OVA (no treatment) −1386
Protocol: Antigen sensitization and challenge: Male Hartley guinea pigs (225-250 g) were sensitized with ovalbumin (0.5 ml of 1% solution, i.p. and s.c.) on day 1 (Aug. 25, 2008). On day 4 (Aug. 28, 2008), animals received a booster injection (i.p.) of 0.5 ml of 1% ovalbumin. On day 21 (Sep. 16, 2008), animals were orally dosed (2 ml/kg) with either vehicle (0.5% methylcellulose/0.2% Tween 80) or compound(s) 24 hours prior to antigen challenge. Thirty minutes before antigen challenge the animals were also injected with mepyramine (10 mg/kg, i.p.) to prevent anaphylactic collapse. Animals were then exposed for 20 min to an aerosol of 1% ovalbumin using a DeVilbiss Ultraneb nebulizer. Negative control animals were not challenged. Sensitizing solution: One gram (1 g) of albumin from chicken egg white (Sigma A55031G; lot#087K7004) was added to 100 ml of saline and allowed to go into solution.
Airway resistance measurement: Eighteen to twenty four hours after challenge, animals were anesthetized, (0.5 ml dose (i.m.) of cocktail containing ketamine (62 mg/kg), xylazine (30 mg/kg) and Promace (1.5 mg/kg)), surgically prepared and then placed in a whole body plethysmograph. Animals were connected to Ugo-Basile ventilators delivering a tidal volume of 1 ml/100 g at a rate of 50 breaths/minute via a tracheal cannula. The jugular vein is also cannulated for histamine challenge. A-water filled esophageal cannula was placed such that transpulmonary pressure could be recorded. Transpulmonary pressure was measured as the difference between the tracheal and esophageal cannulas using a differential pressure transducer. The volume, airflow, and transpulmonary pressure signals are monitored using a pulmonary analysis system (Buxco XA software) and used to calculate pulmonary resistance (cmH2O/ml/s) and dynamic compliance (ml/cmH20). Airway resistance and dynamic compliance are computed on a breath-by-breath basis. Histamine is administered intravenously and reactivity to increasing concentrations (1-20 μg/kg) assessed.

SMILES: COCCn1cc(C(=O)N2CCC(c3cc(CN)ccc3F)CC2)c2c(OC(F)(F)F)ccc(F)c21.O=C(O)c1ccccc1 [benzoate salt, [4-(5-Aminomethyl-2-fluorophenyl)piperidine-1-yl][7-fluoro-1-(2-methoxyethyl)-4-trifluoromethoxy-1H-indol-3-yl]methanone Benzoate]
- Solid form stability in aqueous suspension (XRPD and thermal analysis) [1]: no free base or conversions to hydrate form were noted

SMILES: COCCn1cc(C(=O)N2CCC(c3cc(CN)ccc3F)CC2)c2c(OC(F)(F)F)ccc(F)c21 [compound of formula I, [4-(5-aminomethyl-2-fluoro-phenyl)-piperidin-1-yl]-[7-fluoro-1-(2-methoxy-ethyl)-4-trifluoromethoxy-1H-indol-3-yl]-methanone]
- Ki [2]: 0.026 ± 0.005 µM

SMILES: COCCn1cc(C(=O)N2CCC(c3cc(CN)ccc3F)CC2)c2c(OC(F)(F)F)ccc(F)c21.COCCn1cc(C(=O)N2CCC(c3cc(CN)ccc3F)CC2)c2c(OC(F)(F)F)ccc(F)c21.O.O.O=C(O)/C=C/C(=O)O.O=C(O)/C=C/C(=O)O.O=C(O)/C=C/C(=O)O [Fumarate Salt, [4-(5-Aminomethyl-2-fluorophenyl)piperidine-1-yl][7-fluoro-1-(2-methoxyethyl)-4-trifluoromethoxy-1H-indol-3-yl]methanone Sesquifumarate Monohydrate]
- Increase in Airway Resistance (Area Under Curve) ([3]; 0.01 mg/kg oral): 9647 +/− 818
- Dynamic Lung Compliance (Area Under Curve) ([3]; 0.01 mg/kg oral): −1218 +/− 47
- Increase in Airway Resistance (Area Under Curve) ([3]; 0.03 mg/kg oral): 8103 +/− 745
- Dynamic Lung Compliance (Area Under Curve) ([3]; 0.03 mg/kg oral): −1156 +/− 40
- Increase in Airway Resistance (Area Under Curve) ([3]; 0.1 mg/kg oral): 6623 +/− 511
- Dynamic Lung Compliance (Area Under Curve) ([3]; 0.1 mg/kg oral): −1004 +/− 43
- Inhibition of antigen-induced airway hyperreactivity (in words) ([3]; dosed 24 hours prior to allergen challenge, guinea pig, oral): dose-related inhibition of antigen-induced airway hyperreactivity
